The results in this text go back to US7125695B2, “Directed evolution of microorganisms” (Genencor International, Inc., priority 1999, dated 2006).

For one data set, the system named is wild-type E. blattae. Briefly: Viability (plate counts) of wild-type E. blattae during glycerol fermentation with accumulation of 3HPA. To be noted: anaerobic glycerol fermentation, 30° C., 3HPA accumulated to 50 mM. Format: cell-based, Escherichia blattae ATCC 33429. Here is the method:
FIG. 5—Glycerol fermentation of E. blattae at pH 7.0. Culture conditions are described in the text. Plate counts were by serial dilution and performed in triplicate on Luria agar plates. Substrate and 0products were measured by HPLC.
The wild-type E. blattae and the evolved E. blattae were subjected to fermentation in the following medium: 75 g glycerol, 5 g K2HPO4.3H2O, 3 g KH2PO4, 2 g (NH4)2SO4, 0.4 g MgSO4.7H2O, 0.2 g CaCl2.2H2O, 4 mg CoCl2.2H2O, 2 g yeast extract, and 1 g peptone per liter water. The pH was maintained with 20% NaOH. Both fermentations were run at 30° C. with a N2 sparge and were inoculated with a stationary grown overnight preculture.
The wild-type E. blattae accumulated 3HPA and stopped growing and metabolizing glycerol. The accumulation of 3HPA was high and reached 50 mM. […] After the culture had consumed all of the glycerol more was added and the culture continued converting glycerol to 1,3-propanediol.

The target of data set [1] is T1, Escherichia blattae 1,3-propanediol dehydrogenase (PDD, dhaT), mutant PDD from evolved strain GEB031 (ATCC PTA-92), SEQ ID NO:4 (Shimwellia blattae, UniProt Q3ZL59, H105L).
T1 construct: no tag
Briefly: PDD comparison, 1,3-propanediol dehydrogenase from evolved strain GEB031. The class given is biochemical, Escherichia blattae GEB031 (ATCC PTA-92). To be noted: PDD from evolved strain GEB031, compared with wild type E. blattae. On the procedure:
(§1) Strains—Wild type ATCC 33429, E. blattae comprising the mutant PDD as described in Example 4 and having ATCC accession number PTA-92.
(§2) Growth—Cells were grown in a complex medium at 30C 500 ml in a 2800 ml fernbach with shaking at 225 rpm for 20 hr. The medium consists of KH2PO4, 5.4 g/L; (NH4)2SO4, 1.2 g/L; MgSO47H2O, 0.4 g/L; yeast extract, 2.0 g/L; tryptone, 2.0 g/L; and glycerol, 9.2 g/L in tap water. The pH was adjusted to 7.1 with KOH before autoclaving (Honda, et al., 1980, J. Bacteriol, 143:1458–1465).
(§3) Extract prep—Cells were harvested by centrifugation with care to avoid anaerobic conditions. Pellets were resuspended in 100 mM Tricine pH 8.2 containing 50 mM KCl and 1 mM DTT. Cells were disrupted by passage through a French pressure cell. Crude extracts were clarified by centrifugation at 20K×g for 20 min followed by 100K×g for 1 hr to yield the high speed supernatant (HSS) fraction.
(§4) Assays—the assay for PDD was performed as described by Johnson, E. A. et al., 1987, J. Bacteriol. 169:2050–2054.
(§5) Partial purification of PDD—HSS was separated on a 16×100 Poros 20HQ column. The buffers were A, 50 mM HEPES, pH 7.4 containing 100 uM MnCl and B, A buffer containing 500 mM KCl. The column was loaded and developed at 10 ml/min. The gradient was 10 CV wash, a linear gradient to 70% B in 10 CV, and 1 CV to 100% B. The activity was detected in the very early fractions of the gradient. […]

Substrate in data set [2]: NC(=O)c1ccc[n+]([C@@H]2O[C@H](COP(=O)([O-])OP(=O)(O)OC[C@H]3O[C@@H](n4cnc5c(N)ncnc54)[C@H](O)[C@@H]3O)[C@@H](O)[C@H]2O)c1
Briefly: PDD kinetics, partially purified 1,3-propanediol dehydrogenase from wild type strain 33429. Format: biochemical, Escherichia blattae ATCC 33429. To be noted: other: PDD of wild type strain 33429; cofactor NAD; 30.0 °C. On the procedure: as §1, §2, §3, §4, §5

Substrate in data set [3]: OCCCO
The data set is described as above. Format: biochemical, Escherichia blattae ATCC 33429. The note with it: other: PDD of wild type strain 33429; substrate 1,3-propanediol; 30.0 °C. Here is the method:
as §1, §2, §3, §4, §5

T1 sequence (Q3ZL59 entry or part of it H105L): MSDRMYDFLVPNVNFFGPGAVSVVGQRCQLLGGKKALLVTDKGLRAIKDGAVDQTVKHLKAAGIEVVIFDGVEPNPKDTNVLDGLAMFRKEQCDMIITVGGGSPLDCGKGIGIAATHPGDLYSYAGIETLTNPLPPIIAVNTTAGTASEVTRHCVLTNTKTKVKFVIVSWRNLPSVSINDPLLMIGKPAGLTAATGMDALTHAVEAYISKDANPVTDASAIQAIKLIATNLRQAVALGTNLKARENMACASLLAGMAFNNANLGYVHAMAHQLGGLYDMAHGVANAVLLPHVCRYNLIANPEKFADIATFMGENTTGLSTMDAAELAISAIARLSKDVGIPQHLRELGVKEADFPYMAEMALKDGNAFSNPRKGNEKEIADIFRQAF

On to `O=CCCO` [3HPA, 3-hydroxy-propionaldehyde], for which, in the data set with wild-type E. blattae, the “toxicity of accumulated 3HPA (plate counts)” value is on record as “toxic”.
`OCCCO` [1,3-propanediol]: in data set [1], the “Km for 1,3-propanediol” value is on record as “higher”.

B1: Escherichia blattae 1,3-propanediol dehydrogenase (PDD, dhaT), wild type, strain ATCC 33429 (Shimwellia blattae) (protein)
chain: MSDRMYDFLVPNVNFFGPGAVSVVGQRCQLLGGKKALLVTDKGLRAIKDGAVDQTVKHLKAAGIEVVIFDGVEPNPKDTNVLDGLAMFRKEQCDMIITVGGGSPHDCGKGIGIAATHPGDLYSYAGIETLTNPLPPIIAVNTTAGTASEVTRHCVLTNTKTKVKFVIVSWRNLPSVSINDPLLMIGKPAGLTAATGMDALTHAVEAYISKDANPVTDASAIQAIKLIATNLRQAVALGTNLKARENMACASLLAGMAFNNANLGYVHAMAHQLGGLYDMAHGVANAVLLPHVCRYNLIANPEKFADIATFMGENTTGLSTMDAAELAISAIARLSKDVGIPQHLRELGVKEADFPYMAEMALKDGNAFSNPRKGNEKEIADIFRQAF
notes: no tag
With B1, the Km in data set [2] was 57 µM; in data set [3], 28 mM.
